This passage reports IC50, fraction unbound and chromatographic logD results from ChEMBL document CHEMBL4184170, “New Caspase-1 inhibitor by scaffold hopping into bio-inspired 3D-fragment space” (Bioorg Med Chem Lett, 2017).

Data set [1] concerns the target T1, Caspase-1 (Homo sapiens, UniProt P29466).
T1 sequence (P29466 whole entry): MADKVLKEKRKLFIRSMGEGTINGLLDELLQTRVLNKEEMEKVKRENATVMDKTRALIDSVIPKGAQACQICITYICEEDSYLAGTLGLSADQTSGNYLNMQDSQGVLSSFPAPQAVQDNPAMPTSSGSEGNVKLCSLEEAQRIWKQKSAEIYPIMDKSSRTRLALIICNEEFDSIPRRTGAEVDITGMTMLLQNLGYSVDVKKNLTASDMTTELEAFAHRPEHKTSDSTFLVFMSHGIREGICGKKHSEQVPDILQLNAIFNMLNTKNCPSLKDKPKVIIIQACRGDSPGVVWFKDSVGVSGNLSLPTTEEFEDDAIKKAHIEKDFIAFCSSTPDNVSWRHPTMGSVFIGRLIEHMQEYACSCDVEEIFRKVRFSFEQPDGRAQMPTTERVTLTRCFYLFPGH
As to the kind of experiment: Inhibition of human recombinant caspase1 expressed in Escherichia coli using AC-WEHD-AMC as substrate after 20 mins by fluorescence assay.

Data set [2] in a line: Fraction unbound in human plasma at 5 uM after 4 hrs by LC-MS/MS-based equilibrium dialysis method. It is filed as ADME, cell-free. (In equilibrium dialysis free small molecules cross a membrane that holds back macromolecules.)
For data set [3], the target named is T1, Caspase-1. As to the kind of experiment: Inhibition of caspase1 in human THP1 cells assessed as LPS/ATP-induced IL-1beta release preincubated for 24 hrs in presence of LPS measured after overnight incubation by HTRF assay. The format is cell-based. In general terms: In TR-FRET formats the signal depends on donor and acceptor labels being close together.
Data set [4] in a line: Lipophilicity, log D of the compound at pH 6.5 by chromatographic method. The format is physicochemical. To be noted: buffer.

`O=C1C[C@H](NC(=O)[C@@H]2CC[C@@H]3CCCC[C@H](NC(=O)c4nccc5ccccc45)C(=O)N32)C(O)O1` (stereo partly specified): at Caspase-1 [1], the IC50 – broadly, the point on the concentration scale where inhibition reaches its midpoint – came out at 11 nM.

Take `CC(C)(C)[C@H](NC(=O)c1ccc(N)c(Cl)c1)C(=O)N1CCC[C@H]1C(=O)N[C@H]1CC(=O)OC1O` (stereo partly specified): the IC50 on Caspase-1 [1] stood at 5 nM.

For `CC(C)[C@H](NC(=O)c1ccc2ccccc2c1)C(=O)N1[C@H]2CC[C@](O)(CC2)[C@H]1C(=O)N[C@H]1CC(=O)OC1O` (stereo partly specified), the fraction unbound (commonly the share of the substance not bound to proteins or other matrix) at 4 h, 5 µM in data set [2] is 0.12. Also, the IC50 on Caspase-1 [3] was 86 nM; on Caspase-1 [1], 17 nM. Also, the chromatographic logD (in general, lipophilicity estimated from chromatographic retention) in data set [4] was 2.1.
